According to patent US20050069522A1, “Combination pharmaceutical agents as inhibitors of HCV replication” (priority 2002, published 2005):
Where two headings read alike, the source gives them in different places.

Columns and labels:
[1] = test system: HCV replicon (HCV 1b-377-neo replicon cells); experiment: HCV replicon cell line FRET assay; type: cell-based; settings: Hepatitis C virus
[2] = Alamar blue cytotoxicity (CC50), wild-type replicon cells; type: cell-based; settings: human, Huh-7 cells carrying the wild-type HCV 377-neo replicon; Wild-type replicon cell line
[3] = human
[4] = test system: wild-type Blast/Luciferase HCV replicon; type: cell-based; settings: 0.5 μM Compound 124
[5] = read-out: Replicon Inhibition Range EC50
[6] = Wild-type replicon cell line, FRET assay, read-out: EC50
[7] = HCV replicon cell line, FRET assay, read-out: Replicon Inhibition Range EC50

C[C@H](NC(=O)OCc1ccccc1)C(=O)Nc1ccc(C2S/C(=N\c3cccc(F)c3)N(Cc3ccco3)C2=O)cc1 (stereo partly drawn) [Compound 1, (1S-(4-[2-(3-Fluorophenylimino)-3-furan-2-ylmethyl-4-oxo-thiazolidin-5-yl]-phenylcarbamoyl)ethyl)carbamic acid benzyl ester]
EC50 [1, 5]: 100 to 1000 nM
EC50 [1, 6]: 1500 nM
CC50 at 72 h [2]: > 5000 nM
CC50 at 72 h [3]: > 5000 nM

CO[C@H](C(=O)N1CCC[C@H]1C(=O)Nc1ccc(C2S/C(=N\c3ccc(N4CCOCC4)cc3)N(Cc3ccccn3)C2=O)cc1)c1ccccc1 (some centres unmarked) [Compound 117]
EC50 [1, 7]: < 100 nM

O=C(Nc1ccc(C2S/C(=N\c3ccc(N4CCOCC4)cc3)N(Cc3ccccn3)C2=O)cc1)[C@@H]1CCCN1C(=O)C1(c2ccccc2)CC1 (some centres unmarked) [Compound 118]
EC50 [1, 7]: < 100 nM

O=C(C(=O)N1CCC[C@H]1C(=O)Nc1ccc(C2S/C(=N\c3ccc(N4CCOCC4)cc3)N(Cc3ccccn3)C2=O)cc1)c1ccccc1 (some centres unmarked) [Compound 119]
EC50 [1, 7]: < 100 nM

CC(C)/N=C1\SC(c2ccc(NC(=O)[C@H](C)NC(=O)[C@@H](O)c3ccccc3)cc2)C(=O)N1Cc1ccccn1 (some centres unmarked) [Compound 120]
EC50 [1, 7]: < 100 nM

CC(C)/N=C1\SC(c2ccc(NC(=O)[C@H](C)NC(=O)[C@@H](C)c3ccccc3)cc2)C(=O)N1Cc1ccccn1 (some centres unmarked) [Compound 121]
EC50 [1, 7]: 100 to 1000 nM

CO[C@H](C(=O)N[C@@H](C)C(=O)Nc1ccc(C2S/C(=N\C(C)C)N(Cc3ccccn3)C2=O)cc1)c1ccccc1 (some centres unmarked) [Compound 122]
EC50 [1, 7]: < 100 nM

CC(C)/N=C1\SC(c2ccc(NC(=O)[C@H](C)NC(=O)C(c3ccccc3)c3ccccc3)cc2)C(=O)N1Cc1ccccn1 (some centres unmarked) [Compound 123]
EC50 [1, 7]: < 100 nM

C[C@H](NC(=O)Cc1ccccc1)C(=O)Nc1ccc(C2S/C(=N\c3cccc(F)c3)N(Cc3ccco3)C2=O)cc1 (stereo partly drawn) [Compound 124, (N-{4-[2-(3-fluorophenylimino)-3-furan-2-ylmethyl-4-oxo-thiazolidin-5-yl]phenyl}-2S-(phenylacetylamino))propionamide]
EC50 [1, 5]: < 100 nM
EC50 [1, 6]: 103 nM
CC50 at 72 h [2]: > 5000 nM
replication of the replicon in the presence of compound [4]: completely inhibited
CC50 at 72 h [3]: > 5000 nM

C[C@H](NC(=O)CCc1ccccc1)C(=O)Nc1ccc(C2S/C(=N\c3cccc(F)c3)N(Cc3ccco3)C2=O)cc1 (some centres unmarked) [Compound 125]
EC50 [1, 7]: 1000 to 5000 nM

C[C@H](NC(=O)c1ccccc1)C(=O)Nc1ccc(C2S/C(=N\c3cccc(F)c3)N(Cc3ccco3)C2=O)cc1 (some centres unmarked) [Compound 126]
EC50 [1, 7]: 1000 to 5000 nM

O=C(Nc1ccc(C2S/C(=N\c3cccc(F)c3)N(Cc3ccco3)C2=O)cc1)[C@@H]1CCCN1C(=O)Cc1ccc(Cl)cc1 (some centres unmarked) [Compound 128]
EC50 [1, 7]: 100 to 1000 nM

O=C(Nc1ccc(C2S/C(=N\c3cccc(F)c3)N(Cc3ccco3)C2=O)cc1)[C@@H]1CCCN1C(=O)Cc1ccncc1 (some centres unmarked) [Compound 129]
EC50 [1, 7]: 100 to 1000 nM

O=C(Nc1ccc(C2S/C(=N\c3cccc(F)c3)N(Cc3ccco3)C2=O)cc1)[C@@H]1CCCN1C(=O)COc1ccccc1 (some centres unmarked) [Compound 130]
EC50 [1, 7]: 100 to 1000 nM

O=C(Nc1ccc(C2S/C(=N\c3ccc(N4CCOCC4)cc3)N(Cc3ccccn3)C2=O)cc1)[C@@H]1CCCN1S(=O)(=O)Cc1ccccc1 (some centres unmarked) [Compound 132]
EC50 [1, 7]: 1000 to 5000 nM

C[C@H](NC(=O)NCc1ccccc1)C(=O)Nc1ccc(C2S/C(=N\c3cccc(F)c3)N(Cc3ccco3)C2=O)cc1 (some centres unmarked) [Compound 133]
EC50 [1, 7]: 100 to 1000 nM

C[C@H](NC(=O)Nc1ccccc1)C(=O)Nc1ccc(C2S/C(=N\c3cccc(F)c3)N(Cc3ccco3)C2=O)cc1 (some centres unmarked) [Compound 134]
EC50 [1, 7]: 1000 to 5000 nM

O=C(Nc1ccc(C2S/C(=N\c3ccc(N4CCOCC4)cc3)N(Cc3ccccn3)C2=O)cc1)[C@@H]1CCCN1C(=O)NCc1ccccc1 (some centres unmarked) [Compound 135]
EC50 [1, 7]: < 100 nM

O=C(Nc1ccc(C2S/C(=N\c3ccc(N4CCOCC4)cc3)N(Cc3ccccn3)C2=O)cc1)[C@@H]1CCCN1C(=S)NCc1ccccc1 (some centres unmarked) [Compound 136]
EC50 [1, 7]: < 100 nM

C[C@H](NC(=O)Cc1ccccc1)C(=O)Nc1ccc(C2SC3=Nc4ccccc4CN3C2=O)cc1 (some centres unmarked) [Compound 137]
EC50 [1, 7]: 100 to 1000 nM

C[C@H](NC(=O)OCc1ccccc1)C(=O)Nc1ccc(C2SC3=Nc4ccccc4CN3C2=O)cc1 (some centres unmarked) [Compound 138]
EC50 [1, 7]: 1000 to 5000 nM

O=C(Nc1ccc(C2SC3=Nc4ccccc4CN3C2=O)cc1)[C@H]1CCCN1C(=O)OCc1ccccc1 (some centres unmarked) [Compound 139]
EC50 [1, 7]: 100 to 1000 nM
